Experimental data reported in patent publication US20230139171A1 (SITA Information Networking Computing UK Limited, priority 2019, published 2023).

Tests used:
Type in all cases: cell-based
human TLR9 = target: T1, human TLR9 (Homo sapiens, UniProt Q9NR96); test: TLR9 inhibition reporter assay (HEK-Blue cells, SEAP reporter, ODN2006 stimulation); conditions: HEK-Blue cells overexpressing human TLR9, SEAP reporter, ODN2006 5 nM
T1 construct: host or cells: HEK-Blue cells
T1 sequence (Q9NR96 26-1032): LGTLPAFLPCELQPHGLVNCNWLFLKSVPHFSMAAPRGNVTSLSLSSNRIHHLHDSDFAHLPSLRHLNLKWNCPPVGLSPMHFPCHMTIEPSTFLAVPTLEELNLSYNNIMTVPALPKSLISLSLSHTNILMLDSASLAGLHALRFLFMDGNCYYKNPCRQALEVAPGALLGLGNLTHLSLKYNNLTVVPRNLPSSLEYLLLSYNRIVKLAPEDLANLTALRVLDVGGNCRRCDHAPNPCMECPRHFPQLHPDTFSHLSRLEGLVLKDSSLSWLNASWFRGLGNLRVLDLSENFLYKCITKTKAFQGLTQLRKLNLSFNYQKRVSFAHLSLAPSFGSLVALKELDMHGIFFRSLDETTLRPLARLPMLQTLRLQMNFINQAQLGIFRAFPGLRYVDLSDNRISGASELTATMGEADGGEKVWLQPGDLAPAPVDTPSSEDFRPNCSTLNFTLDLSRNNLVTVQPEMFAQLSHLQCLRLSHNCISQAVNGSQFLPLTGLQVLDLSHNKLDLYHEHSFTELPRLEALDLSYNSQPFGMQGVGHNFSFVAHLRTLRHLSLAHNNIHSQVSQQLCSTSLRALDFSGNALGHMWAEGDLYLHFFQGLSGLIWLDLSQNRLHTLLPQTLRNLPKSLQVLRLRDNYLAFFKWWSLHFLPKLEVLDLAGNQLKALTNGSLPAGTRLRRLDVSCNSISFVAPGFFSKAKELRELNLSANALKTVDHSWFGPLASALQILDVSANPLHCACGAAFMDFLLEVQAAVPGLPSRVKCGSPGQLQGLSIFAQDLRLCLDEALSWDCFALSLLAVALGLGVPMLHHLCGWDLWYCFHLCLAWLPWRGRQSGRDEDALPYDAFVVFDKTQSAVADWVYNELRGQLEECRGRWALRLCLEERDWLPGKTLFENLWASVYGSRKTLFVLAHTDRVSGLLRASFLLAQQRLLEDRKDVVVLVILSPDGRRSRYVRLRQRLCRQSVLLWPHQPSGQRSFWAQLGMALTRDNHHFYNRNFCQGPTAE
Method in brief: (§1)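 Human TLR7/8/9 HEK-Blue reporter lines; dose range 0.05 nM–50 μM; 30 min RT preincubation; stimulus gardiquimod 7.5 μM / R848 15.9 μM / ODN2006 5 nM respectively; 22 h, 37 °C; SEAP detected colorimetrically.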

human TLR7 = target: T2, human TLR7 (Homo sapiens, UniProt Q9NYK1); test: TLR7 inhibition reporter assay (HEK-Blue cells, SEAP reporter, gardiquimod stimulation); conditions: HEK-Blue cells overexpressing human TLR7, SEAP reporter, gardiquimod 7.5 μM; read-out: TLR7 IC50
T2 construct: host or cells: HEK-Blue cells
T2 sequence (Q9NYK1 27-1049): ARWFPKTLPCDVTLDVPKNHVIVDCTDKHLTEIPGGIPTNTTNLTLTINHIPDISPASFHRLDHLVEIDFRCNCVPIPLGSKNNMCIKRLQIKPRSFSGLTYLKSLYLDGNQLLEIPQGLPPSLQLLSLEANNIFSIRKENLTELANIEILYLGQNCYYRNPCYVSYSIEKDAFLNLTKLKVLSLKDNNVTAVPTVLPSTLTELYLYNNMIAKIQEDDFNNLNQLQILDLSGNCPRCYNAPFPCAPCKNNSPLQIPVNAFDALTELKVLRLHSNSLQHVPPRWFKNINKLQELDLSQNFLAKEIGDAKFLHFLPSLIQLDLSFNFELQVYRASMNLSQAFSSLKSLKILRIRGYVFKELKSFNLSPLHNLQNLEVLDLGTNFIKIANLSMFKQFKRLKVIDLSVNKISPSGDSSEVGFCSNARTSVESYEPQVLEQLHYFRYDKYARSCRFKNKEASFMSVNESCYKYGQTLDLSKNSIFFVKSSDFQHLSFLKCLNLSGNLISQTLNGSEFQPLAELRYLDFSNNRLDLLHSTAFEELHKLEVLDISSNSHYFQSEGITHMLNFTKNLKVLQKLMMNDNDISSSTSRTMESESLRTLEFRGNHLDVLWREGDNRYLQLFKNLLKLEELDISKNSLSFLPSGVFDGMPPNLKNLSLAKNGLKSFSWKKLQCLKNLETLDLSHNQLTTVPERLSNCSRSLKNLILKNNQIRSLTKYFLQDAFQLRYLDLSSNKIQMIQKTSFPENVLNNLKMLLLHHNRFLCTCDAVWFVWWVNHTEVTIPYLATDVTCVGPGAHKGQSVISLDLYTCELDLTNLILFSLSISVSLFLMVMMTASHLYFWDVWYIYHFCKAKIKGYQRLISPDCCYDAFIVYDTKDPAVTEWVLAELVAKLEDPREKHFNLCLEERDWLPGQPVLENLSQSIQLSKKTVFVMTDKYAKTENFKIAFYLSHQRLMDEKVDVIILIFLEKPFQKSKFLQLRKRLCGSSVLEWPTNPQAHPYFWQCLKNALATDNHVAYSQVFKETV
Method in brief: as §1

human TLR8 = target: T3, human TLR8 (Homo sapiens, UniProt Q9NR97); test: TLR8 inhibition reporter assay (HEK-Blue cells, SEAP reporter, R848 stimulation); conditions: HEK-Blue cells overexpressing human TLR8, SEAP reporter, R848 15.9 μM; read-out: TLR8 IC50
T3 construct: host or cells: HEK-Blue cells
T3 sequence (Q9NR97 27-1041): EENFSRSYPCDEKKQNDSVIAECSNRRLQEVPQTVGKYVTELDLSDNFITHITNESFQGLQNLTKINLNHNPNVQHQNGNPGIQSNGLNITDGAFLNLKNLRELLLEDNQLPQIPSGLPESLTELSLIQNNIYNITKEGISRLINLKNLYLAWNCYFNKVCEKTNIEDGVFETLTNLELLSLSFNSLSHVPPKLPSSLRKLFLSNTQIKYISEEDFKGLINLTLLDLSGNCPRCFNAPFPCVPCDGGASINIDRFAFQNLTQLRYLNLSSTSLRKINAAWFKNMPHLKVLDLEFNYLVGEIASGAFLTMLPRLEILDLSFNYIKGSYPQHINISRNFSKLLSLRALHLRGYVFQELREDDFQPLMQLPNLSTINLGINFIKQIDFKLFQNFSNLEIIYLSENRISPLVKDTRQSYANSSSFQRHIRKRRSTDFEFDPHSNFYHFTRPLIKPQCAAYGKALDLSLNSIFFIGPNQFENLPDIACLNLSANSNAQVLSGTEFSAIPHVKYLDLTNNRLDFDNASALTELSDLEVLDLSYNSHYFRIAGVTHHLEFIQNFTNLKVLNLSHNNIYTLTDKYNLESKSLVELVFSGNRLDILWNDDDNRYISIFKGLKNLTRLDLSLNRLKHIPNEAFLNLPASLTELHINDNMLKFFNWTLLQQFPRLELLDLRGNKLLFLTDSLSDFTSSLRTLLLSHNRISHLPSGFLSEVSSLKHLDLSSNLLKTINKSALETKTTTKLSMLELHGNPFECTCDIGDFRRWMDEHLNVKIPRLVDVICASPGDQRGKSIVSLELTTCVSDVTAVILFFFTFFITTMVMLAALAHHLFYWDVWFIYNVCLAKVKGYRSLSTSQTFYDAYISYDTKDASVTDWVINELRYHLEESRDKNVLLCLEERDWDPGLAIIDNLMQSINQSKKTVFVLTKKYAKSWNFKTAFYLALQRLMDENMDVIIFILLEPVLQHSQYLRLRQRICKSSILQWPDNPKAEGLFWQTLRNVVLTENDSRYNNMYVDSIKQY
Method in brief: as §1

| IC50 (human TLR9) [µM] | IC50 (human TLR7) [µM] | IC50 (human TLR8) [µM] | SMILES |
| --- | --- | --- | --- |
| 42.1 | 0.0819 | 0.0345 | Cc1c(-c2[nH]c3sc(C(=O)N4CCS(=O)(=O)CC4)nc3c2C(C)C)cn2ncnc2c1C [Example 373, (5-(7,8-dimethyl-[1,2,4]triazolo[1,5-a]pyridin-6-yl)-6-isopropyl-4H-pyrrolo[3,2-d]thiazol-2-yl)(1,1-dioxidothiomorpholino)methanone] |
| 35.6 | 0.0199 | 0.0084 | CC(=O)N1CCN(C(=O)c2nc3c(C(C)C)c(-c4cn5ncnc5c(C)c4C)[nH]c3s2)CC1 [Example 375, 1-(4-(5-(7,8-dimethyl-[1,2,4]triazolo[1,5-a]pyridin-6-yl)-6-isopropyl-4H-pyrrolo[3,2-d]thiazole-2-carbonyl)piperazin-1-yl)ethan-1-one] |
| 6.3 | 0.00454 | 0.0028 | Cc1c(-c2[nH]c3sc(C(=O)N4CCC(N(C)C)CC4)nc3c2C(C)C)cn2ncnc2c1C [Example 376, (5-(7,8-dimethyl-[1,2,4]triazolo[1,5-a]pyridin-6-yl)-6-isopropyl-4H-pyrrolo[3,2-d]thiazol-2-yl)(4-(dimethylamino)piperidin-1-yl)methanone] |
| 28 | 0.0557 | 0.0229 | Cc1c(-c2[nH]c3sc(C(=O)N4CC(F)C4)nc3c2C(C)C)cn2ncnc2c1C [Example 379, (5-(7,8-dimethyl-[1,2,4]triazolo[1,5-a]pyridin-6-yl)-6-isopropyl-4H-pyrrolo[3,2-d]thiazol-2-yl) (3-fluoroazetidin-1-yl)methanone] |
| 6.52 | 0.0115 | 0.00507 | Cc1c(-c2[nH]c3sc(C(=O)N4CCN(C(C)C)CC4)nc3c2C(C)C)cn2ncnc2c1C [Example 380, (5-(7,8-dimethyl-[1,2,4]triazolo[1,5-a]pyridin-6-yl)-6-isopropyl-4H-pyrrolo[3,2-d]thiazol-2-yl)(4-isopropylpiperazin-1-yl)methanone] |
| 47 | 0.0175 | 0.00351 | Cc1c(-c2[nH]c3sc(C(=O)N4CC(N(C)C)C4)nc3c2C(C)C)cn2ncnc2c1C [Example 383, (5-(7,8-dimethyl-[1,2,4]triazolo[1,5-a]pyridin-6-yl)-6-isopropyl-4H-pyrrolo[3,2-d]thiazol-2-yl) (3-(dimethylamino)azetidin-1-yl)methanone] |

Continued, molecule first:

| SMILES | IC50 (human TLR9) [µM] | IC50 (human TLR7) [µM] | IC50 (human TLR8) [µM] |
| --- | --- | --- | --- |
| Cc1c(-c2[nH]c3sc(C(=O)NCC(C)(C)N4CCOCC4)nc3c2C(C)C)cn2ncnc2c1C [Example 374, 5-(7,8-dimethyl-[1,2,4]triazolo[1,5-a]pyridin-6-yl)-6-isopropyl-N-(2-methyl-2-morpholinopropyl)-4H-pyrrolo[3,2-d]thiazole-2-carboxamide] | 41.5 | 0.0117 | 0.00933 |
| Cc1c(-c2[nH]c3sc(C(=O)NCCC4CCN(C)CC4)nc3c2C(C)C)cn2ncnc2c1C [Example 381, 5-(7,8-dimethyl-[1,2,4]triazolo[1,5-a]pyridin-6-yl)-6-isopropyl-N-(2-(1-methylpiperidin-4-yl)ethyl)-4H-pyrrolo[3,2-d]thiazole-2-carboxamide] | 5.88 | 0.0111 | 0.00906 |
| Cc1c(-c2[nH]c3sc(C(=O)N(C)CCN(C)C)nc3c2C(C)C)cn2ncnc2c1C [Example 382, 5-(7,8-dimethyl-[1,2,4]triazolo[1,5-a]pyridin-6-yl)-N-(2-(dimethylamino)ethyl)-6-isopropyl-N-methyl-4H-pyrrolo[3,2-d]thiazole-2-carboxamide] | 9.86 | 0.00232 | 0.00233 |
| Cc1c(-c2[nH]c3sc(C(=O)NCC4CNCCO4)nc3c2C(C)C)cn2ncnc2c1C (stereo not drawn) [Example 386, 5-(7,8-dimethyl-[1,2,4]triazolo[1,5-a]pyridin-6-yl)-6-isopropyl-N-(morpholin-2-ylmethyl)-4H-pyrrolo[3,2-d]thiazole-2-carboxamide] | 9.56 | 0.0103 | 0.00356 |
| COc1cc(-c2[nH]c3sc(C(=O)NCCN4CCCC4)nc3c2C(C)C)cn2ncnc12 [Example 387, 6-isopropyl-5-(8-methoxy-[1,2,4]triazolo[1,5-a]pyridin-6-yl)-N-(2-(pyrrolidin-1-yl)ethyl)-4H-pyrrolo[3,2-d]thiazole-2-carboxamide] | 11.5 | 0.0252 | 0.0439 |
| COc1cc(-c2[nH]c3sc(C(=O)NCCN(C)C)nc3c2C(C)C)cn2ncnc12 [Example 388, N-(2-(dimethylamino)ethyl)-6-isopropyl-5-(8-methoxy-[1,2,4]triazolo[1,5-a]pyridin-6-yl)-4H-pyrrolo[3,2-d]thiazole-2-carboxamide] | 16.1 | 0.0224 | 0.0374 |
| COc1cc(-c2[nH]c3sc(C(=O)NCC(F)F)nc3c2C(C)C)cn2ncnc12 [Example 389, N-(2,2-difluoroethyl)-6-isopropyl-5-(8-methoxy-[1,2,4]triazolo[1,5-a]pyridin-6-yl)-4H-pyrrolo[3,2-d]thiazole-2-carboxamide] | 37.1 | 0.0503 | 0.168 |
